From ChEMBL document CHEMBL4411307, “N,N'-diaryl-bishydrazones in a biphenyl platform: Broad spectrum antifungal agents” (Eur J Med Chem, 2019)
In brackets after ≈: the same amount, converted by molar mass. Activity calls are given as the source filed them. No cut-off for these calls is given here.

Assays:
Listeria monocytogenes = experiment: Antibacterial activity against Listeria monocytogenes; format: functional, organism-based
Staphylococcus aureus = experiment: Antibacterial activity against methicillin-resistant Staphylococcus aureus; format: functional, organism-based
Enterococcus = experiment: Antibacterial activity against vancomycin-resistant Enterococcus; format: functional, organism-based
Candida albicans [1] = experiment: Antifungal activity against fluconazole/ITC-resistant Candida albicans ATCC 10231 measured after 48 hrs by CLSI M27-A3 protocol based method; format: functional; settings: ATCC 10231, 48 h
Candida albicans [2] = experiment: Antifungal activity against fluconazole/ITC-resistant Candida albicans ATCC 64124 measured after 48 hrs by CLSI M27-A3 protocol based method; format: functional; settings: ATCC 64124, 48 h
Candida albicans [3] = experiment: Antifungal activity against fluconazole/ITC-susceptible Candida albicans ATCC MYA-2876 measured after 48 hrs by CLSI M27-A3 protocol based method; format: functional; settings: ATCC MYA-2876, 48 h
Candida albicans [4] = experiment: Antifungal activity against fluconazole/ITC-resistant Candida albicans ATCC 90819 measured after 48 hrs by CLSI M27-A3 protocol based method; format: functional; settings: ATCC 90819, 48 h
Candida albicans [5] = experiment: Antifungal activity against fluconazole/ITC-susceptible Candida albicans ATCC MYA-2310 measured after 48 hrs by CLSI M27-A3 protocol based method; format: functional; settings: ATCC MYA-2310, 48 h
Candida albicans [6] = experiment: Antifungal activity against fluconazole/ITC-resistant Candida albicans ATCC MYA-1237 measured after 48 hrs by CLSI M27-A3 protocol based method; format: functional; settings: ATCC MYA-1237, 48 h
Candida albicans [7] = experiment: Antifungal activity against fluconazole/ITC-resistant Candida albicans ATCC MYA-1003 measured after 48 hrs by CLSI M27-A3 protocol based method; format: functional; settings: ATCC MYA-1003, 48 h
Nakaseomyces glabratus = experiment: Antifungal activity against Candida glabrata ATCC 2001 measured after 48 hrs by CLSI M27-A3 protocol based method; format: functional; settings: CBS 138, 48 h
Pichia kudriavzevii = experiment: Antifungal activity against Candida krusei ATCC 6258 measured after 48 hrs by CLSI M27-A3 protocol based method; format: functional; settings: ATCC 6258, 48 h
Candida parapsilosis = experiment: Antifungal activity against Candida parapsilosis ATCC 22019 measured after 48 hrs by CLSI M27-A3 protocol based method; format: functional; settings: Lodderomyces parapsilosis, ATCC 22019, 48 h
Aspergillus flavus = experiment: Antifungal activity against Aspergillus flavus ATCC MYA-3631 measured after 48 hrs by CLSI M38-A2 protocol based method; format: functional; settings: ATCC MYA-3631, 48 h
Aspergillus nidulans = experiment: Antifungal activity against Aspergillus nidulans ATCC 38163 measured after 48 hrs by CLSI M38-A2 protocol based method; format: functional; settings: ATCC 38163, 48 h
Aspergillus terreus = experiment: Antifungal activity against Aspergillus terreus ATCC MYA-3633 measured after 48 hrs by CLSI M38-A2 protocol based method; format: functional; settings: ATCC MYA-3633, 48 h
A549 = experiment: Cytotoxicity against human A549 cells after 24 hrs by resazurin based assay; format: cell-based; settings: a549, 24 h
BEAS-2B = experiment: Cytotoxicity against human BEAS2B cells after 24 hrs by resazurin based assay; format: cell-based
[8] = Selectivity index, ratio of CC50 for human A549 cells to MIC for fluconazole/ITC-resistant Candida albicans ATCC 10231; format: toxicity; settings: read-out: Selectivity Index
[9] = Selectivity index, ratio of CC50 for human A549 cells to MIC for fluconazole/ITC-resistant Candida albicans ATCC 64124; format: toxicity; settings: read-out: Selectivity Index
[10] = Selectivity index, ratio of CC50 for human A549 cells to MIC for fluconazole/ITC-susceptible Candida albicans ATCC MYA-2876; format: toxicity; settings: read-out: Selectivity Index
[11] = Selectivity index, ratio of CC50 for human A549 cells to MIC for fluconazole/ITC-resistant Candida albicans ATCC 90819; format: toxicity; settings: read-out: Selectivity Index
[12] = Selectivity index, ratio of CC50 for human A549 cells to MIC for fluconazole/ITC-susceptible Candida albicans ATCC MYA-2310; format: toxicity; settings: read-out: Selectivity Index
[13] = Selectivity index, ratio of CC50 for human A549 cells to MIC for fluconazole/ITC-resistant Candida albicans ATCC MYA-1237; format: toxicity; settings: read-out: Selectivity Index
[14] = Selectivity index, ratio of CC50 for human A549 cells to MIC for fluconazole/ITC-resistant Candida albicans ATCC MYA-1003; format: toxicity; settings: read-out: Selectivity Index
[15] = Selectivity index, ratio of CC50 for human A549 cells to MIC for Candida glabrata ATCC 2001; format: toxicity; settings: read-out: Selectivity Index
[16] = Selectivity index, ratio of CC50 for human A549 cells to MIC for Candida krusei ATCC 6258; format: toxicity; settings: read-out: Selectivity Index
[17] = Selectivity index, ratio of CC50 for human A549 cells to MIC for Candida parapsilosis ATCC 22019; format: toxicity; settings: read-out: Selectivity Index
[18] = Selectivity index, ratio of CC50 for human A549 cells to MIC for Aspergillus nidulans ATCC 38163; format: toxicity; settings: read-out: Selectivity Index
[19] = Selectivity index, ratio of CC50 for human A549 cells to MIC for Aspergillus terreus ATCC MYA-3633; format: toxicity; settings: read-out: Selectivity Index
[20] = Hemolytic activity in mouse RBC at […] after 1 hr relative to control; format: ADME, cell-based, Erythrocyte; settings: red blood cells (erythrocytes), read-out: Activity; note: tested at 0.48 µg/mL
[21] = Hemolytic activity in mouse RBC at […] ug/ml after 1 hr relative to control; format: ADME, cell-based, Erythrocyte; settings: red blood cells (erythrocytes), read-out: Activity
[22] = Hemolytic activity in mouse RBC at 1.95 ug/ml after 1 hr relative to control; format: ADME, cell-based, Erythrocyte; settings: red blood cells (erythrocytes), read-out: Activity
[23] = Hemolytic activity in mouse RBC at 3.9 ug/ml after 1 hr relative to control; format: ADME, cell-based, Erythrocyte; settings: red blood cells (erythrocytes), read-out: Activity
[24] = Hemolytic activity in mouse RBC at 7.8 ug/ml after 1 hr relative to control; format: ADME, cell-based, Erythrocyte; settings: red blood cells (erythrocytes), read-out: Activity
[25] = Hemolytic activity in mouse RBC at 31.3 ug/ml after 1 hr relative to control; format: ADME, cell-based, Erythrocyte; settings: red blood cells (erythrocytes), read-out: Activity
[26] = Hemolytic activity in mouse RBC at 62.5 ug/ml after 1 hr relative to control; format: ADME, cell-based, Erythrocyte; settings: red blood cells (erythrocytes), read-out: Activity
[27] = Selectivity index, ratio of CC50 for human A549 cells to MIC for Aspergillus flavus ATCC MYA-3631; format: toxicity; settings: read-out: Selectivity Index

SMILES	Activity (Listeria monocytogenes)	Activity (Staphylococcus aureus)	Activity (Enterococcus)	MIC (Candida albicans [1]) [µg/mL]	MIC (Candida albicans [2]) [µg/mL]	MIC (Candida albicans [3]) [µg/mL]	MIC (Candida albicans [4]) [µg/mL]	MIC (Candida albicans [5]) [µg/mL]	MIC (Candida albicans [6]) [µg/mL]	MIC (Candida albicans [7]) [µg/mL]	MIC (Nakaseomyces glabratus) [µg/mL]	MIC (Pichia kudriavzevii) [µg/mL]	MIC (Candida parapsilosis) [µg/mL]	MIC (Aspergillus flavus) [µg/mL]	MIC (Aspergillus nidulans) [µg/mL]	MIC (Aspergillus terreus) [µg/mL]	CC50 (A549) [µg/mL]	CC50 (BEAS-2B) [µg/mL]	selectivity ratio [8]	selectivity ratio [9]	further results
Fc1cccc(N/N=C/c2ccc(-c3cccc(/C=N/Nc4cccc(F)c4)c3)cc2)c1	inactive	inactive	inactive	1.95 (≈ 4.57 µM)	> 31.3	7.8 (≈ 18.3 µM)	15.6 (≈ 36.6 µM)	> 31.3	15.6 (≈ 36.6 µM)	7.8 (≈ 18.3 µM)	> 31.3	1.95 (≈ 4.57 µM)	31.3 (≈ 73.4 µM)	3.9 (≈ 9.14 µM)	7.8 (≈ 18.3 µM)	> 31.3	11.7 (≈ 27.4 µM)	11.8 (≈ 27.7 µM)	6	0.4	selectivity ratio [10]: 1.5; selectivity ratio [11]: 0.8; selectivity ratio [12]: 0.4; selectivity ratio [13]: 0.8; selectivity ratio [14]: 1.5; selectivity ratio [15]: 0.4; selectivity ratio [16]: 6; selectivity ratio [17]: 0.4; selectivity ratio [18]: 1.5; selectivity ratio [19]: 0.4; hemolysis at 1 h, […] [20]: 0%; hemolysis at 1 h, 15.6 ug/ml ([21]; at 15.6 µg/mL): 13.9%; hemolysis at 1 h, 0.975 ug/ml [21]: 4.6%; hemolysis at 1 h, 1.95 ug/ml [22]: 0.6%; hemolysis at 1 h, 3.9 ug/ml [23]: 2.5%; hemolysis at 1 h, 7.8 ug/ml [24]: 7.9%; hemolysis at 1 h, 31.3 ug/ml [25]: 32.6%; hemolysis at 1 h, 62.5 ug/ml [26]: 39.5%
Fc1ccccc1N/N=C/c1ccc(-c2cccc(/C=N/Nc3ccccc3F)c2)cc1	inactive	inactive	inactive	7.8 (≈ 18.3 µM)	7.8 (≈ 18.3 µM)	> 31.3	15.6 (≈ 36.6 µM)	31.3 (≈ 73.4 µM)	> 31.3	7.8 (≈ 18.3 µM)	> 31.3	1.95 (≈ 4.57 µM)	15.6 (≈ 36.6 µM)	3.9 (≈ 9.14 µM)	7.8 (≈ 18.3 µM)	> 31.3	16.4 (≈ 38.5 µM)	> 31	2.1	2.1	selectivity ratio [10]: 0.5; selectivity ratio [11]: 1.1; selectivity ratio [12]: 0.5; selectivity ratio [13]: 0.5; selectivity ratio [14]: 2.1; selectivity ratio [15]: 0.5; selectivity ratio [16]: 8.4; selectivity ratio [17]: 1.1; selectivity ratio [27]: > 4.2; selectivity ratio [18]: 2.1; selectivity ratio [19]: 0.5
COc1ccc(N/N=C(\C)c2ccc(-c3ccc(/C(C)=N/Nc4ccc(OC)cc4)cc3)cc2)cc1	inactive	inactive	inactive	15.6 (≈ 32.6 µM)	15.6 (≈ 32.6 µM)	15.6 (≈ 32.6 µM)	31.3 (≈ 65.4 µM)	15.6 (≈ 32.6 µM)	7.8 (≈ 16.3 µM)	7.8 (≈ 16.3 µM)	7.8 (≈ 16.3 µM)	15.6 (≈ 32.6 µM)	> 31.3	> 31.3	> 31.3	> 31.3					
Fc1ccccc1N/N=C/c1ccc(-c2ccc(/C=N/Nc3ccccc3F)cc2)cc1	inactive	inactive	inactive	3.9 (≈ 9.14 µM)	> 31.3	15.6 (≈ 36.6 µM)	31.3 (≈ 73.4 µM)	> 31.3	> 31.3	15.6 (≈ 36.6 µM)	> 31.3	3.9 (≈ 9.14 µM)	> 31.3	> 31.3	31.3 (≈ 73.4 µM)	> 31.3					
